# Data as given in patent US9150545B2, “Carboxamide compounds and their use as calpain inhibitors V” (ABBVIE DEUTSCHLAND GMBH & CO. KG, priority 2012, dated 2015).
# pKi: −log10 of the molar value. Structures can show the parent of a compound that is named as a salt.
# Molecular target: T1, calpain-I isolated from human erythrocytes (Homo sapiens, UniProt P07384)
# T1 construct: calpain-I—isolated from human erythrocytes (Calbiochem #208713); purchased Calbiochem 208713; host or cells: human erythrocytes (native tissue isolate)
# T1 sequence (P07384 1-714): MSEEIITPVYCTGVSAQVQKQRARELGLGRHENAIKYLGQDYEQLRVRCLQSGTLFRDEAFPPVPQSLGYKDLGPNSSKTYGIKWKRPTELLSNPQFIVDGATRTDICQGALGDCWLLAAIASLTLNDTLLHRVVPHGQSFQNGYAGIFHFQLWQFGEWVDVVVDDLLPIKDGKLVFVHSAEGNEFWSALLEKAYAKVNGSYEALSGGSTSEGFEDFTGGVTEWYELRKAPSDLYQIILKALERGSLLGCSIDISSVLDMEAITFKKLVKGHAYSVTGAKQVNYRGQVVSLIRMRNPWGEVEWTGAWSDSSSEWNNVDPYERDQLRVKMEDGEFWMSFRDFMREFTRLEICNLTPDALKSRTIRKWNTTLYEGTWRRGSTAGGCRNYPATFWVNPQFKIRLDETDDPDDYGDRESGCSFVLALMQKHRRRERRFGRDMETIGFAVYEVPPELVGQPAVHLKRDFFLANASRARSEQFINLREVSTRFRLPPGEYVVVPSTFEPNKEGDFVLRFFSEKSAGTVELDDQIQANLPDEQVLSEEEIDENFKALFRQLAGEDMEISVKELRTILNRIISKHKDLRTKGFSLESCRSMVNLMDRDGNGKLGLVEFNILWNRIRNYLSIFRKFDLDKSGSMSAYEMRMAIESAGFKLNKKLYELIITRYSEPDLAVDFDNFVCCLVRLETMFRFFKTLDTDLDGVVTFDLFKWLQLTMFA
# T1 sequence (P04632 1-268 partner): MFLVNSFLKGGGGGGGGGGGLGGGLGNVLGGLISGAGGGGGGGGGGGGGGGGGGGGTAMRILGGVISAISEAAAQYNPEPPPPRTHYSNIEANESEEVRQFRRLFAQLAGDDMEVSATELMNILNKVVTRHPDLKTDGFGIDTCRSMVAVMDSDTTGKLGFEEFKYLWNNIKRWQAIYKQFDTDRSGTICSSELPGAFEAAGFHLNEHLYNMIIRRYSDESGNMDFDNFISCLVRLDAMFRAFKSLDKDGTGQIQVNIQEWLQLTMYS
# Test: Calpain I kinetic fluorescence enzyme inhibition assay
# Format: biochemical
# Conditions: apparent Ki from IC50 by Cheng-Prussoff
# Method: Testing for blockade of the corresponding enzymic activities was carried out by means of kinetic fluorescence assays (excitation 390 nm, emission 460 nm).
# Apparent Ki values were calculated from the experimentally determined IC50 values by the Cheng-Prussoff relation assuming a reversible competitive enzyme inhibition.
# 20 nM calpain-I—isolated from human erythrocytes (Calbiochem #208713), 100 μM Suc-Leu-Tyr-AMC (Bachem #I-1355) as substrate in buffer with 62 mM imidazole, 0.3 mM CaCl2, 0.10% CHAPS, 0.05% BSA, 1 mM DTT at pH 7.3 and room temperature.
row,Compound,pKi
1,"CCCCC(NC(=O)c1cccnc1-n1ccc(CN2CCC(F)(F)CC2)n1)C(=O)C(N)=O (stereo not drawn) [Example 38, N-(1-Amino-1,2-dioxoheptan-3-yl)-2-(3-((4,4-difluoropiperidin-1-yl)methyl)-1H-pyrazol-1-yl)nicotinamide]",> 6.60
2,"NC(=O)C(=O)C(Cc1ccccc1)NC(=O)c1cccnc1-n1ccc(CN2CC3CC(F)(F)CC3C2)n1 (stereo not drawn) [Example 13, N-(4-amino-3,4-dioxo-1-phenyl-2-butanyl)-2-{3-[(5,5-difluorohexahydrocyclopenta[c]pyrrol-2(1H)-yl)methyl]-1H-pyrazol-1-yl}nicotinamide trifluoroacetate]",> 6.60
3,"CC(c1ccn(-c2ncccc2C(=O)NC(Cc2ccccc2)C(=O)C(N)=O)n1)N1Cc2ccccc2C1 (stereo not drawn) [Example 35, N-(4-Amino-3,4-dioxo-1-phenylbutan-2-yl)-2-(3-(1-(isoindolin-2-yl)ethyl)-1H-pyrazol-1-yl)nicotinamide trifluoroacetate]",> 6.60
4,"NC(=O)C(=O)C(Cc1ccccc1)NC(=O)c1cccnc1-n1ccc(CN2CCC(c3ccccc3)C2)n1 (stereo not drawn) [Example 29, N-(4-Amino-3,4-dioxo-1-phenylbutan-2-yl)-2-(3-((3-phenylpyrrolidin-1-yl)methyl)-1H-pyrazol-1-yl)nicotinamide]",> 6.60
5,"NC(=O)C(=O)C(Cc1ccccc1)NC(=O)c1cccnc1-n1ccc(CN2Cc3ccc(F)cc3C2)n1 (stereo not drawn) [Example 31, N-(4-Amino-3,4-dioxo-1-phenylbutan-2-yl)-2-(3-((5-fluoroisoindolin-2-yl)methyl)-1H-pyrazol-1-yl)nicotinamide trifluoroacetate]",> 6.60
6,"CC(C)(C)C1CCN(Cc2ccn(-c3ncccc3C(=O)NC(Cc3ccccc3)C(=O)C(N)=O)n2)CC1 (stereo not drawn) [Example 23, N-(4-Amino-3,4-dioxo-1-phenylbutan-2-yl)-2-(3-((4-tert-butylpiperidin-1-yl)methyl)-1H-pyrazol-1-yl)nicotinamide]",> 6.60
7,"O=C(NC1CC1)C(=O)C(Cc1ccccc1)NC(=O)c1cccnc1-n1ccc(CN2Cc3ccccc3C2)n1 (stereo not drawn) [Example C2, reference compound]",6.00 to 6.10
8,"NC(=O)C(=O)C(Cc1ccccc1)NC(=O)c1cccnc1-n1ccc(CN2CCC(C(F)(F)F)CC2)n1 (stereo not drawn) [Example 12, N-(4-Amino-3,4-dioxo-1-phenylbutan-2-yl)-2-(3-((4-(trifluoromethyl)piperidin-1-yl)methyl)-1H-pyrazol-1-yl)nicotinamide trifluoroacetate]",> 6.60
9,"NC(=O)C(=O)C(Cc1ccccc1)NC(=O)c1cccnc1-n1ccc(CN2CCOc3ccccc32)n1 (stereo not drawn) [Example 6, 2-(3-((2H-Benzo[b][1,4]oxazin-4(3H)-yl)methyl)-1H-pyrazol-1-yl)-N-(4-amino-3,4-dioxo-1-phenylbutan-2-yl)nicotinamide]",> 6.60
10,"NC(=O)C(=O)C(Cc1ccccc1)NC(=O)c1cccnc1-n1ccc(CN2CCOC(c3ccccc3)C2)n1 (stereo not drawn) [Example 9, N-(4-Amino-3,4-dioxo-1-phenylbutan-2-yl)-2-(3-((2-phenylmorpholino)methyl)-1H-pyrazol-1-yl)nicotinamide trifluoroacetate]",> 6.60
11,"NC(=O)C(=O)C(Cc1ccccc1)NC(=O)c1cccnc1-n1ccc(CN2Cc3ccc(C(F)(F)F)cc3C2)n1 (stereo not drawn) [Example 30, N-(4-Amino-3,4-dioxo-1-phenylbutan-2-yl)-2-(3-((5-(trifluoromethyl)isoindolin-2-yl)methyl)-1H-pyrazol-1-yl)nicotinamide trifluoroacetate]",> 6.60
12,"NC(=O)C(=O)C(Cc1ccccc1)NC(=O)c1cccnc1-n1ccc(CN2CCC(c3ccccc3)CC2)n1 (stereo not drawn) [Example 5, N-(4-Amino-3,4-dioxo-1-phenylbutan-2-yl)-2-(3-((4-phenylpiperidin-1-yl)methyl)-1H-pyrazol-1-yl)nicotinamide]",> 6.60

# Next, values leading:
row,pKi,Compound
1,> 6.60,"CC(C)(C)OC(=O)N1CCc2cn(-c3ncccc3C(=O)NC(Cc3ccccc3)C(=O)C(N)=O)nc2C1 (stereo not drawn) [Example 45, tert-Butyl 2-(3-(4-amino-3,4-dioxo-1-phenylbutan-2-ylcarbamoyl)pyridin-2-yl)-2,4,5,7-tetrahydro-6H-pyrazolo[3,4-c]pyridine-6-carboxylate]"
2,> 6.60,"CC(C)(C)OC(=O)N1Cc2cn(-c3ncccc3C(=O)NC(Cc3ccccc3)C(=O)C(N)=O)nc2C1 (stereo not drawn) [Example 43, tert-Butyl 2-(3-(4-amino-3,4-dioxo-1-phenylbutan-2-ylcarbamoyl)pyridin-2-yl)-4,6-dihydropyrrolo[3,4-c]pyrazole-5(2H)-carboxylate]"
3,> 6.60,"NC(=O)C(=O)C(Cc1ccccc1)NC(=O)c1cccnc1-n1ccc(CN2CCC(F)(F)CC2)n1 (stereo not drawn) [Example 3, N-(4-Amino-3,4-dioxo-1-phenylbutan-2-yl)-2-(3-((4,4-difluoropiperidin-1-yl)methyl)-1H-pyrazol-1-yl)nicotinamide trifluoroacetate]"
4,> 6.60,"CN(Cc1ccn(-c2ncccc2C(=O)NC(Cc2ccccc2)C(=O)C(N)=O)n1)C1CCCCC1 (stereo not drawn) [Example 20, N-(4-Amino-3,4-dioxo-1-phenylbutan-2-yl)-2-(3-((cyclohexyl(methyl)amino)methyl)-1H-pyrazol-1-yl)nicotinamide trifluoroacetate]"
5,> 6.60,"NC(=O)C(=O)C(Cc1ccccc1)NC(=O)c1cccnc1-n1cc2c(n1)CNC2 (stereo not drawn) [Example 44, N-(4-Amino-3,4-dioxo-1-phenyl-2-butanyl)-2-(5,6-dihydropyrrolo[3,4-c]pyrazol-2(4H)-yl)nicotinamide hydrochloride]"
6,> 6.60,"CN(Cc1ccn(-c2ncccc2C(=O)NC(Cc2ccccc2)C(=O)C(N)=O)n1)C1CC1 (stereo not drawn) [Example 26, N-(4-Amino-3,4-dioxo-1-phenylbutan-2-yl)-2-(3-((cyclopropyl(methyl)amino)methyl)-1H-pyrazol-1-yl)nicotinamide trifluoroacetate]"
7,> 6.60,"NC(=O)C(=O)C(Cc1ccccc1)NC(=O)c1cccnc1-n1cc2c(n1)CCN(Cc1ccccc1)C2 (stereo not drawn) [Example 4, N-(4-Amino-3,4-dioxo-1-phenylbutan-2-yl)-2-(5-benzyl-4,5,6,7-tetrahydro-2H-pyrazolo[4,3-c]pyridin-2-yl)nicotinamide]"
8,> 6.60,"CC1CN(Cc2ccn(-c3ncccc3C(=O)NC(Cc3ccccc3)C(=O)C(N)=O)n2)CC(C)O1 (single isomer, unassigned) [Example 2b, N-(4-Amino-3,4-dioxo-1-phenylbutan-2-yl)-2-(3-((2,6-dimethylmorpholino)-methyl)-1H-pyrazol-1-yl)nicotinamide]"
9,6.40 to 6.60,"NC(=O)C(=O)C(Cc1ccccc1)NC(=O)c1cccnc1-n1ccc(CN2CCC2)n1 (stereo not drawn) [Example 11, N-(4-Amino-3,4-dioxo-1-phenylbutan-2-yl)-2-(3-(azetidin-1-ylmethyl)-1H-pyrazol-1-yl)nicotinamide trifluoroacetate]"
10,> 6.60,"NC(=O)C(=O)C(Cc1ccccc1)NC(=O)c1cccnc1-n1cc2c(n1)CCNC2 (stereo not drawn) [Example 42, N-(4-Amino-3,4-dioxo-1-phenylbutan-2-yl)-2-(4,5,6,7-tetrahydro-2H-pyrazolo[4,3-c]pyridin-2-yl)nicotinamide hydrochloride]"
11,> 6.60,"NC(=O)C(=O)C(Cc1ccccc1)NC(=O)c1cccnc1-n1ccc(CN2CCOCC2)n1 (stereo not drawn) [Example 1, N-(4-Amino-3,4-dioxo-1-phenylbutan-2-yl)-2-(3-(morpholinomethyl)-1H-pyrazol-1-yl)nicotinamide]"
12,> 6.60,"NC(=O)C(=O)C(Cc1ccccc1)NC(=O)c1cccnc1-n1ccc(CN2CCc3ccccc32)n1 (stereo not drawn) [Example 15, N-(4-Amino-3,4-dioxo-1-phenylbutan-2-yl)-2-(3-(indolin-1-ylmethyl)-1H-pyrazol-1-yl)nicotinamide]"
